Assay results taken from paper PMC9697349, “Mouse Pharmacokinetics and In Vitro Metabolism of SH-11037 and SH-11008, Synthetic Homoisoflavonoids for Retinal Neovascularization” (Pharmaceutics, 2022).

Assay: Mouse pharmacokinetics, single i.v. dose
Type: in vivo
Details: plasma, iv, single i.v. dose of SH-11008 3 mg/kg, male ICR mice
Method: Pharmacokinetic studies were performed with male ICR mice (8 weeks old, 30~35 g) purchased from Koatech Co. (Kyunggi, Korea) as reported previously. Test compounds were dissolved at 1 mg/mL in DMA/Tween 80/20% aqueous HPβCD (10/10/80 vol%) to prepare the dosing solutions. SH-11037 was administered by oral (p.o.) gavage at a dose of 10 mg/kg and a dose volume of 10 mL/kg (equimolar to 6 mg/kg of SH-11008) or intravenously (i.v.) via tail vein injection at a dose of 5 mg/kg and a dose volume of 5 mL/kg (equimolar to 3 mg/kg of SH-11008), respectively. SH-11008 was administered p.o. at a dose of 6 mg/kg and a dose volume of 6 mL/kg or i.v. at a dose of 3 mg/kg and a dose volume of 3 mL/kg, respectively. Plasma samples were analyzed as described below in Section 2.6.1.
Calibration standards and quality control (QC) samples were prepared by spiking 15 μL of blank plasma with 5 μL of analyte working solution prepared in 50 vol% aqueous CH3CN. For sample preparation, 15 μL aliquots of plasma samples combined with 5 μL of 50 vol% aqueous CH3CN were mixed with 3 volumes of ice-cold CH3CN containing glipizide (500 ng/mL) as the IS. The mixture was vortexed, sonicated, and centrifuged at 3000× g for 20 min. The supernatant was then mixed with the same volume of HPLC grade water before analysis. Sample analyses were conducted using Agilent 1290 Infinity HPLC system coupled to Agilent 6460 Triple Quadrupole LC-MS/MS system equipped with Jet Stream ESI ion source (Agilent Technologies Korea, Seoul, Korea). Chromatographic separation was performed on an Agilent Eclipse Plus C18 column (2.1 × 100 mm, 3.5 μm) with a Phenomenex Security Guard C18 guard column (4 × 20 mm) maintained at 40 °C. The mobile phase consisted of 0.1% formic acid in deionized water (A) and 0.1% formic acid in CH3CN (B): 0~2 min 5% B, 2~3 min to 95% B, and 3~6.5 min 95% B. Total run time including a 3 min equilibration time was 9.5 min. The flow rate was 0.45 mL/min. The injection volume was 5 µL. Detection of the analyte ions was performed in the positive multiple reaction monitoring (MRM) mode, with the following mass transitions (precursor > product): m/z 644 > 588, 397 > 367, and 446 > 321 for SH-11037, SH-11008 and IS, respectively. […] The lower limit of quantitation of SH-11037 and SH-11008 were 0.24 and 0.48 ng/mL, respectively, with a signal-to-noise ratio based on root mean square noise > 10. The calibration curves were linear in the range of 0.24–500 ng/mL (r^2 > 0.997) for SH-11037 and 0.48–500 ng/mL (r^2 > 0.998) for SH-11008, respectively. The precision and accuracy of the analytical method were evaluated with the QC samples prepared in triplicate at 5, 250, and 400 ng/mL for both of SH-11037 and SH-11008: the coefficient of variation (%CV) and the relative error (%RE) were in the ranges of −21.23~5.72% and 1.47~12.30% for SH-11037 and −22.85~4.96% and 1.2~13.8% for SH-11008, respectively. Extraction recovery, matrix effect, and process efficiency were in the ranges of 91.8~107.1%, 86.3~99.9%, and 88.8~100.8% for SH-11037 and 88.9~103.8%, 88.9~100.0%, and 80.0~97.4% for SH-11008, respectively. Quantitative analysis data were obtained with Agilent Mass Hunter Quantitative Analysis QQQ (ver. B.05.00) software.
Pharmacokinetic parameters were calculated by noncompartmental analysis of plasma concentration versus time profiles using PKSolver. The scaling factors of mice and human, half-life (t1/2), intrinsic clearance (CLint), hepatic clearance (CLH), and hepatic extraction ratio (EH) were from the in vitro studies as described previously. […] The fraction of parent drug converted to the metabolite (fm) was calculated as follows:fm (%) = (AUC(m) × CL(m))/D × MWparent/MWmetabolite × 100,(1) where D is dose of the parent drug, AUC(m) is area under the curve for the metabolite after a dose of parent drug, CL(m) is CL of metabolite, and MW is molecular weight.

Compound `COc1ccc(CC2COc3cc(OC)c(OC)c(OC)c3C2=O)cc1O` (stereo not shown) [SH-11008] has a Cmax of 770 ± 1160 ng/mL, a Tmax of 5 min and a clearance of 210 ± 17.2 mL/min/kg. For the same compound, the half-life (n = 3, read-out: t1/2 of SH-11008) was 3.5 ± 0.5 min, the AUC(0-inf) (read-out: AUCinf of SH-11008 (converted)) was 239 ng·h/mL and the AUC(0-t) (read-out: AUClast of SH-11008 (converted)) was 239 ng·h/mL. It also gave a Vd (read-out: Vss) of 0.5 ± 0.1 L/kg.
